For 21 molecules, mortality results are on record in US12384787B2, “Fused heterocyclic compounds and their use as pest control agents” (PI INDUSTRIES LTD., priority 2019, dated 2025).

Each structure is given as a SMILES string.

Format in all cases: in vivo
In one assay the test system is Plutella xylostella. The assay can be described thus: Plutella xylostella leaf dip method (cabbage leaves). The following applies: foliar, second instar larvae, 72 h after release, dead and moribund combined, compared to untreated control, read-out: Percent mortality. The procedure:
The leaf dip method was used for testing, wherein the required quantity of the compounds were weighed and dissolved in a surfactant solution, kept on a Vortex at 2000 rpm with zirconia beads for 90 min for proper mixing and then diluted with 0.01% Triton-X solution to the desired test concentration. Cabbage leaves were dipped in the solution for 10 seconds, shade dried for 20 min and then transferred to bioassay trays. A single second instar larva was released into each bioassay tray cell and the tray was covered with a lid. The bio-assay trays were kept under laboratory conditions at a temperature of 25° C. and relative humidity of 70%. Observations on dead, moribund and living larvae were recorded at 72 h after the release. Percent mortality was calculated by combining dead and moribund larvae and comparing the result to the one of the untreated control.

The subject of a further assay is Helicoverpa armigera. The assay can be described thus: Helicoverpa armigera diet incorporation method. To be noted: third instar larvae, 96 h after release, dead and moribund combined, compared to untreated control, read-out: Percent mortality. The procedure: Diet incorporation method was used, in which the required quantity of test compounds were weighed and dissolved in a surfactant solution, kept on vortex for 90 min for proper mixing, then was diluted with water to the desired test concentrations. The solutions were incorporated into semi-synthetic diet when the temperature reached approximately 50° C. in the bioassay containers. The diet and solution was stirred thoroughly for properly mixing and then left to cool for 30 min. The solidified diet was cut into equal pieces, and then each piece was transferred into one cell of the bio-assay trays. A single third starved instar larva was released into each of these cells of the bioassay trays and each tray was covered with a lid. The bio-assay trays were kept under laboratory conditions at a temperature of 25° C. and relative humidity of 70%. Observations on dead, moribund and alive larvae were recorded at 96 h after the release of the larvae. Percent mortality was calculated by combining dead and moribund larvae and comparing the result to the one of the untreated control.

The next assay has as its system Spodoptera litura. Put plainly: Spodoptera litura diet incorporation method. To be noted: third instar larvae, 96 h after release, dead and moribund combined, compared to untreated control, read-out: Percent mortality. The procedure:
Diet incorporation method was used, in which the required quantity of test compounds were weighed and dissolved in surfactant solution, kept on vortex for 90 min for proper mixing, then diluted with water to the desired test concentrations. The solutions were incorporated into semi-synthetic diet when the temperature reached approximately 50° C. in the bioassay containers. The diet and solution was stirred thoroughly for properly mixing and was left to cool for 30 min. The solidified diet was cut into equal pieces, and then each piece was transferred into one cell of the bio-assay trays. A single starved third instar larva was released into each of these cells of the bioassay trays and the tray was covered with a lid. The bio-assay trays were kept under laboratory conditions at a temperature of 25° C. and relative humidity of 70%. Observations on dead, moribund and alive larvae were recorded at 96 h after the release of the larvae. Percent mortality was calculated by combining dead and moribund larvae and comparing the result to the one of the untreated control.

For the molecule `CCS(=O)(=O)c1nn2c(-c3ccc(OC(F)(F)F)cc3)ccnc2c1-c1nc2cc(S(=O)(=O)C(F)(F)F)ccc2o1` [Compound 32, 2-(2-(Ethylsulfonyl)-7-(4-(trifluoromethoxy)phenyl)pyrazolo[1,5-a]pyrimidin-3-yl)-5-((trifluoromethyl)sulfonyl)benzo[d]oxazole], the mortality at 300 ppm in the assay with Plutella xylostella and in the assay with Helicoverpa armigera was greater than 70% throughout.

For `CCS(=O)(=O)c1nn2c(-c3ccc(F)cc3)ccnc2c1-c1nc2cc(C(F)(F)F)cnc2n1C` [Compound 25, 2-(2-(Ethylsulfonyl)-7-(4-fluorophenyl)pyrazolo[1,5-a]pyrimidin-3-yl)-3-methyl-6-(trifluoromethyl)-3H-imidazo[4,5-b]pyridine], the mortality at 300 ppm with Plutella xylostella, with Helicoverpa armigera and with Spodoptera litura was greater than 70% in each case.

For the molecule `CCSc1nn2c(-c3cccc(Cl)c3)ccnc2c1-c1nc2cc(C(F)(F)F)cnc2n1C` [Compound 97, 2-(7-(3-Chlorophenyl)-2-(ethylthio)pyrazolo[1,5-a]pyrimidin-3-yl)-3-methyl-6-(trifluoromethyl)-3H-imidazo[4,5-b]pyridine], the mortality at 300 ppm in the assay with Helicoverpa armigera was greater than 70%.

For `CCS(=O)(=O)c1nn2c(-c3cccc(Cl)c3)ccnc2c1-c1nc2cc(C(F)(F)F)cnc2n1C` [Compound 99, 2-(7-(3-Chlorophenyl)-2-(ethylsulfonyl)pyrazolo[1,5-a]pyrimidin-3-yl)-3-methyl-6-(trifluoromethyl)-3H-imidazo[4,5-b]pyridine], the mortality at 300 ppm in the assay with Plutella xylostella and with Helicoverpa armigera was greater than 70% each time.

With `CCSc1nn2c(-c3ccc(OC(F)(F)C(F)F)cc3)ccnc2c1-c1nc2cc(C(F)(F)F)cnc2n1C` [Compound 87, 2-(2-(Ethylthio)-7-(4-(1,1,2,2-tetrafluoroethoxy)phenyl)pyrazolo[1,5-a]pyrimidin-3-yl)-3-methyl-6-(trifluoromethyl)-3H-imidazo[4,5-b]pyridine], the mortality at 300 ppm with Plutella xylostella, with Helicoverpa armigera and in the assay on Spodoptera litura was greater than 70% throughout.

Take `CCS(=O)(=O)c1nn2cc(-c3ccc(OC(F)(F)C(F)F)cc3)cnc2c1-c1nc2cc(C(F)(F)F)ncc2n1C` [Compound 109, 2-(2-(Ethylsulfonyl)-6-(4-(1,1,2,2-tetrafluoroethoxy)phenyl)pyrazolo[1,5-a]pyrimidin-3-yl)-3-methyl-6-(trifluoromethyl)-3H-imidazo[4,5-c]pyridine]: the mortality at 300 ppm in the assay on Plutella xylostella and in the assay on Helicoverpa armigera was greater than 70% each time.

Take `CCSc1nn2c(-c3cc(F)cc(Cl)c3)ccnc2c1-c1nc2cc(C(F)(F)F)cnc2n1C` [Compound 102, 2-(7-(3-Chloro-5-fluorophenyl)-2-(ethylthio)pyrazolo[1,5-a]pyrimidin-3-yl)-3-methyl-6-(trifluoromethyl)-3H-imidazo[4,5-b]pyridine]: the mortality at 300 ppm in the assay on Helicoverpa armigera was greater than 70%.

In the case of `CCSc1nn2c(-c3ccc(OC(F)(F)C(F)F)cc3)ccnc2c1-c1nc2cc(C(F)(F)F)ncc2n1C` [Compound 93, 2-(2-(Ethylthio)-7-(4-(1,1,2,2-tetrafluoroethoxy)phenyl)pyrazolo[1,5-a]pyrimidin-3-yl)-3-methyl-6-(trifluoromethyl)-3H-imidazo[4,5-c]pyridine], the mortality at 300 ppm in the assay with Plutella xylostella, in the assay on Helicoverpa armigera and in the assay on Spodoptera litura was greater than 70% throughout.

With `CCSc1nn2c(-c3ccc(Cl)cc3Cl)ccnc2c1-c1nc2cc(C(F)(F)F)cnc2n1C` [Compound 120, 2-(7-(2,4-Dichlorophenyl)-2-(ethylthio)pyrazolo[1,5-a]pyrimidin-3-yl)-3-methyl-6-(trifluoromethyl)-3H-imidazo[4,5-b]pyridine], the mortality at 300 ppm in the assay with Helicoverpa armigera was greater than 70%.

Consider `CCSc1nn2c(-c3cccc(C(F)(F)F)c3)ccnc2c1-c1nc2cc(C(F)(F)F)ncc2n1C` [Compound 134, 2-(2-(Ethylthio)-7-(3-(trifluoromethyl)phenyl)pyrazolo[1,5-a]pyrimidin-3-yl)-3-methyl-6-(trifluoromethyl)-3H-imidazo[4,5-c]pyridine], for which the mortality at 300 ppm in the assay with Spodoptera litura is greater than 70%.

Take `CCSc1nn2c(-c3cccc(C(F)(F)F)c3)ccnc2c1-c1nc2cc(C(F)(F)F)cnc2n1C` [Compound 126, 2-(2-(Ethylthio)-7-(3-(trifluoromethyl)phenyl)pyrazolo[1,5-a]pyrimidin-3-yl)-3-methyl-6-(trifluoromethyl)-3H-imidazo[4,5-b]pyridine]: the mortality at 300 ppm in the assay on Helicoverpa armigera and in the assay with Spodoptera litura was greater than 70% throughout.

Take `CCS(=O)(=O)c1nn2c(-c3ccc(Cl)cc3)ccnc2c1-c1nc2cc(C(F)(F)F)ncc2n1C` [Compound 37, 2-(7-(4-Chlorophenyl)-2-(ethylsulfonyl)pyrazolo[1,5-a]pyrimidin-3-yl)-3-methyl-6-(trifluoromethyl)-3H-imidazo[4,5-c]pyridine]: the mortality at 300 ppm with Plutella xylostella and with Spodoptera litura was greater than 70% in each case.

As for `CCS(=O)(=O)c1nn2c(-c3ccc(Cl)cc3)ccnc2c1-c1nc2cc(C(F)(F)F)cnc2n1C` [Compound 39, 2-(7-(4-Chlorophenyl)-2-(ethylsulfonyl)pyrazolo[1,5-a]pyrimidin-3-yl)-3-methyl-6-(trifluoromethyl)-3H-imidazo[4,5-b]pyridine], the mortality at 300 ppm in the assay with Plutella xylostella and in the assay with Helicoverpa armigera was greater than 70% throughout.

Regarding `CCS(=O)(=O)c1nn2c(-c3cccc(C(F)(F)F)c3)ccnc2c1-c1nc2cc(C(F)(F)F)ncc2n1C` [Compound 136, 2-(2-(Ethylsulfonyl)-7-(3-(trifluoromethyl)phenyl)pyrazolo[1,5-a]pyrimidin-3-yl)-3-methyl-6-(trifluoromethyl)-3H-imidazo[4,5-c]pyridine], the mortality at 300 ppm in the assay with Plutella xylostella and with Helicoverpa armigera was greater than 70% each time.

Take `CCS(=O)(=O)c1nn2c(-c3ccc(OC(F)(F)C(F)F)cc3)ccnc2c1-c1nc2cc(C(F)(F)F)ncc2n1C` [Compound 91, 2-(2-(Ethylsulfonyl)-7-(4-(1,1,2,2-tetrafluoroethoxy)phenyl)pyrazolo[1,5-a]pyrimidin-3-yl)-3-methyl-6-(trifluoromethyl)-3H-imidazo[4,5-c]pyridine]: the mortality at 300 ppm with Plutella xylostella and in the assay on Helicoverpa armigera was greater than 70% throughout.

Take `CCS(=O)(=O)c1nn2c(-c3cccc(C(F)(F)F)c3)ccnc2c1-c1nc2cc(C(F)(F)F)cnc2n1C` [Compound 129, 2-(2-(ethylsulfonyl)-7-(3-(trifluoromethyl)phenyl)pyrazolo[1,5-a]pyrimidin-3-yl)-3-methyl-6-(trifluoromethyl)-3H-imidazo[4,5-b]pyridine]: the mortality at 300 ppm with Plutella xylostella and with Spodoptera litura was greater than 70% each time.

With `CCSc1nn2c(-c3ccc(OC(F)(F)F)cc3)ccnc2c1-c1nc2cc(C(F)(F)F)ncc2n1C` [Compound 28, 2-(2-(Ethylthio)-7-(4-(trifluoromethoxy)phenyl)pyrazolo[1,5-a]pyrimidin-3-yl)-3-methyl-6-(trifluoromethyl)-3H-imidazo[4,5-c]pyridine], the mortality at 300 ppm in the assay on Plutella xylostella and with Helicoverpa armigera was greater than 70% throughout.

For `CCSc1nn2cc(Br)cnc2c1-c1nc2cc(C(F)(F)F)cnc2n1C` [Compound 70, 2-(6-Bromo-2-(ethylthio)pyrazolo[1,5-a]pyrimidin-3-yl)-3-methyl-6-(trifluoromethyl)-3H-imidazo[4,5-b]pyridine], the mortality at 300 ppm in the assay on Plutella xylostella is greater than 70%.

As to `CCS(=O)(=O)c1nn2ccc(-c3ccc(Cl)cc3)nc2c1-c1nc2cc(C(F)(F)F)cnc2n1C` [Compound 88, 2-(5-(4-Chlorophenyl)-2-(ethylsulfonyl)pyrazolo[1,5-a]pyrimidin-3-yl)-3-methyl-6-(trifluoromethyl)-3H-imidazo[4,5-b]pyridine], in the assay with Plutella xylostella, the mortality at 300 ppm was greater than 70%.

Take `CCSc1nn2c(-c3ccc(Cl)cc3)ccnc2c1-c1nc2cc(C(F)(F)F)ncc2n1C` [Compound 35, 2-(7-(4-Chlorophenyl)-2-(ethylthio)pyrazolo[1,5-a]pyrimidin-3-yl)-3-methyl-6-(trifluoromethyl)-3H-imidazo[4,5-c]pyridine]: the mortality at 300 ppm in the assay with Plutella xylostella was greater than 70%.

For the molecule `CCS(=O)(=O)c1nn2cc(-c3cc(Cl)cc(Cl)c3)cnc2c1-c1nc2cc(C(F)(F)F)ncc2n1C` [Compound 81, 2-(6-(3,5-Dichlorophenyl)-2-(ethylsulfonyl)pyrazolo[1,5-a]pyrimidin-3-yl)-3-methyl-6-(trifluoromethyl)-3H-imidazo[4,5-c]pyridine], the mortality at 300 ppm with Plutella xylostella was greater than 70%.

For orientation: mortality means the share of the test organisms that died.
